Experimental data as given in ChEMBL document CHEMBL3046364, “Influence of 1, 3, 5-Triazine Compounds on Ammonia Oxidizing Activity of Cell-Free Extracts from Nitrosomonas europaea” (J Pestic Sci, 2002).

System: Nitrosomonas europaea
Experiment: Inhibition of ammonia oxidation in cell suspensions of Nitrosomonas europaea ATCC 25978 assessed as oxygen consumption
Format: functional, organism-based
Details: read-out: pI50 (converted)

| SMILES | IC50 [µM] |
| --- | --- |
| CCNc1nc(C)nc(C(Cl)(Cl)Cl)n1 | 2 |
| CCCCCCCCCCCCCCNc1nc(C)nc(C(Cl)(Cl)Cl)n1 | 21.9 |
| Nc1nc(C(Cl)(Cl)Cl)nc(C(Br)(Br)Br)n1 | 0.0759 |
| Cc1nc(N)nc(C(Cl)(Cl)Cl)n1 | 4.9 |
| CNc1nc(C)nc(C(Cl)(Cl)Cl)n1 | 3.55 |
